Source: PubChem BioAssay (NCI)
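Where inhibition never reached the appropriate level, the endpoint shown equals the highest concentration tested. Otherwise, values were interpolated linearly from a five-concentration, 48-hour dose response in 96-well plates. TGI marks complete inhibition of growth.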

How the values were obtained:
Experiment in all cases: growth of human tumour cells (NCI), 48 h
[1] = system: A549 NSCLC
[2] = system: ACHN renal
[3] = system: CCRF-CEM leukemia
[4] = system: HL-60(TB) leukemia
[5] = system: MDA-N
[6] = system: MOLT-4 leukemia
[7] = system: NCI-H522 lung
[8] = system: NCI/ADR-RES ovarian
[9] = system: OVCAR-4 ovarian
[10] = system: SK-MEL-5 melanoma

O=C(O)c1ccccc1CC1Cc2ccccc2C1=O (centres undefined)
TGI [1]: > 100 µM
TGI [2]: > 100 µM
TGI [3]: > 100 µM
TGI [4]: > 100 µM
TGI [5]: > 100 µM
TGI [6]: > 100 µM
TGI [7]: > 100 µM
TGI [8]: > 100 µM
TGI [9]: > 100 µM
TGI [10]: > 100 µM

CCOC(=O)c1nc2c(nc1C(=O)OCC)C(=O)c1ccccc1C2=O
TGI [1]: 9.47 µM
TGI [2]: 2.02 µM
TGI [3]: > 100 µM
TGI [4]: 1.55 µM
TGI [5]: 0.796 µM
TGI [6]: 6.31 µM
TGI [7]: 4.23 µM
TGI [8]: > 35.1 µM
TGI [9]: 1.95 µM
TGI [10]: 2.19 µM

O=C1NCCN1/N=C/c1c(Cl)n(-c2ccccc2)c2ccccc12
TGI [1]: > 100 µM
TGI [2]: 62 µM
TGI [3]: > 100 µM
TGI [4]: > 100 µM
TGI [5]: 21.6 µM
TGI [6]: > 100 µM
TGI [7]: 44.4 µM
TGI [8]: 49.6 µM
TGI [9]: 76.2 µM
TGI [10]: 29.3 µM

CC1(C)C2CCC1(C)[C@H](n1c(=O)n([C@@H]3CC4CCC3(C)C4(C)C)c(=O)n([C@@H]3CC4CCC3(C)C4(C)C)c1=O)C2
TGI [1]: > 100 µM
TGI [2]: > 100 µM
TGI [4]: 63.1 µM
TGI [5]: > 100 µM
TGI [6]: > 100 µM
TGI [7]: > 100 µM
TGI [8]: > 100 µM
TGI [9]: > 100 µM
TGI [10]: > 100 µM

COc1cccc2c1OC1(C=C2)Oc2ccccc2C(=O)N1C (centres undefined)
TGI [1]: > 100 µM
TGI [2]: > 100 µM
TGI [3]: 46.2 µM
TGI [4]: 75.9 µM
TGI [5]: 44.9 µM
TGI [6]: 81.4 µM
TGI [7]: > 100 µM
TGI [8]: 26.9 µM
TGI [9]: > 100 µM
TGI [10]: > 100 µM

CCOC(=O)c1cn2c(nc1=O)N[C@H]1CCCC[C@@H]12
TGI [1]: > 100 µM
TGI [2]: > 100 µM
TGI [3]: > 100 µM
TGI [4]: > 100 µM
TGI [5]: > 100 µM
TGI [6]: > 100 µM
TGI [7]: > 100 µM
TGI [8]: > 100 µM
TGI [9]: > 100 µM
TGI [10]: > 100 µM

CCN(CC)/C(SCc1ccccc1)=C(\C(Cl)=C(Cl)Cl)[N+](=O)[O-]
TGI [1]: 38.1 µM
TGI [2]: 29.8 µM
TGI [3]: 52.2 µM
TGI [4]: 38.9 µM
TGI [5]: 33.8 µM
TGI [6]: 44.5 µM
TGI [7]: 47.2 µM
TGI [8]: 38 µM
TGI [9]: 44.6 µM
TGI [10]: 30.5 µM

COP(=O)(/C=C/c1cc(C(=O)OCc2ccccc2)n(S(=O)(=O)c2ccccc2)c1)OC
TGI [1]: > 100 µM
TGI [2]: > 100 µM
TGI [3]: > 100 µM
TGI [4]: > 100 µM
TGI [5]: > 100 µM
TGI [6]: > 100 µM
TGI [7]: > 100 µM
TGI [8]: > 100 µM
TGI [9]: > 100 µM
TGI [10]: > 100 µM

Cc1cn(C2CC(O)C(CO)O2)c(=O)[nH]c1=O (centres undefined)
TGI [1]: 4450 µM
TGI [2]: > 5000 µM
TGI [3]: 2390 µM
TGI [4]: > 5000 µM
TGI [5]: > 5000 µM
TGI [6]: 4090 µM
TGI [7]: > 4240 µM
TGI [8]: > 5000 µM
TGI [9]: > 4640 µM
TGI [10]: > 5000 µM

CC1CCC(C(=O)O)(C(Br)C(=O)O)CC1 (centres undefined)
TGI [1]: > 100 µM
TGI [2]: > 100 µM
TGI [3]: > 100 µM
TGI [4]: > 100 µM
TGI [5]: > 100 µM
TGI [6]: > 100 µM
TGI [8]: > 100 µM
TGI [9]: > 100 µM
TGI [10]: > 100 µM

O=C(O)CCC(=O)OC1N=C(c2ccccc2Cl)c2cc([N+](=O)[O-])ccc2NC1=O (centres undefined)
TGI [1]: > 100 µM
TGI [2]: > 100 µM
TGI [3]: > 100 µM
TGI [4]: > 100 µM
TGI [5]: > 100 µM
TGI [7]: > 100 µM
TGI [8]: > 100 µM
TGI [9]: > 100 µM

CCCCCCOc1ccc(C(=O)NOC)cc1
TGI [1]: > 100 µM
TGI [2]: > 100 µM
TGI [3]: > 100 µM
TGI [4]: 86.8 µM
TGI [5]: > 100 µM
TGI [6]: > 100 µM
TGI [7]: > 100 µM
TGI [8]: > 100 µM
TGI [9]: > 100 µM
TGI [10]: > 100 µM

CS(=O)c1ncc2c(n1)-c1ccccc1OC2 (centres undefined)
TGI [1]: > 100 µM
TGI [2]: > 100 µM
TGI [3]: > 100 µM
TGI [4]: > 100 µM
TGI [5]: > 100 µM
TGI [6]: > 100 µM
TGI [7]: > 100 µM
TGI [8]: > 100 µM
TGI [9]: > 100 µM
TGI [10]: > 100 µM

CC(=O)Nc1nc(C#N)[nH]c1C#N
TGI [1]: > 100 µM
TGI [2]: > 100 µM
TGI [3]: > 100 µM
TGI [4]: > 100 µM
TGI [5]: > 100 µM
TGI [6]: > 100 µM
TGI [7]: > 100 µM
TGI [8]: > 100 µM
TGI [9]: > 100 µM
TGI [10]: > 100 µM

N#CC12C(=O)N=C(N)C1(C#N)C(c1ccco1)NC1=C2CCCC1 (centres undefined)
TGI [1]: > 100 µM
TGI [2]: > 100 µM
TGI [3]: > 100 µM
TGI [4]: > 100 µM
TGI [5]: > 100 µM
TGI [6]: > 100 µM
TGI [7]: > 100 µM
TGI [8]: > 100 µM
TGI [9]: > 100 µM
TGI [10]: > 100 µM

Cc1cccc2c1CC1(C2)Cc2c(C)cccc2C1=O (centres undefined)
TGI [1]: > 100 µM
TGI [2]: 84.3 µM
TGI [3]: 56.9 µM
TGI [4]: 52.6 µM
TGI [5]: 61.8 µM
TGI [6]: 30.2 µM
TGI [7]: 59.3 µM
TGI [8]: > 100 µM
TGI [9]: > 100 µM
TGI [10]: 33.7 µM

O=C(/C=C/c1ccc2c(c1)OCO2)CC(=O)C(=O)c1c[nH]c2ccccc12
TGI [1]: > 100 µM
TGI [2]: > 100 µM
TGI [3]: 69.4 µM
TGI [4]: > 100 µM
TGI [5]: 91.3 µM
TGI [6]: > 100 µM
TGI [7]: > 100 µM
TGI [8]: > 100 µM
TGI [10]: > 100 µM

CSC(=S)N/N=C(\C)c1ccc(S(=O)(=O)N(C)c2ccccc2)cc1
TGI [1]: > 100 µM
TGI [2]: > 100 µM
TGI [4]: > 100 µM
TGI [5]: > 100 µM
TGI [6]: > 100 µM
TGI [8]: > 100 µM
TGI [9]: > 100 µM

CCOC(=O)C1=C(C)C2C=C(c3cccs3)CC(c3ccc(Cl)cc3)=C2OC1=O (centres undefined)
TGI [1]: > 100 µM
TGI [2]: > 100 µM
TGI [3]: 60.1 µM
TGI [4]: 31.6 µM
TGI [5]: > 100 µM
TGI [6]: > 100 µM
TGI [7]: > 100 µM
TGI [8]: > 100 µM
TGI [9]: > 100 µM
TGI [10]: > 100 µM

COc1cccc(CCCNC(=O)Cc2cc(OC)c(OC)cc2CO)c1
TGI [1]: > 100 µM
TGI [2]: > 100 µM
TGI [3]: > 100 µM
TGI [4]: > 100 µM
TGI [5]: > 100 µM
TGI [6]: > 100 µM
TGI [8]: > 100 µM
TGI [9]: > 100 µM
TGI [10]: > 100 µM

COc1ccc2c(c1)OCC1Cc3ccccc3OC21 (centres undefined)
TGI [1]: > 100 µM
TGI [2]: > 100 µM
TGI [3]: > 100 µM
TGI [4]: > 100 µM
TGI [5]: > 10 µM
TGI [6]: > 100 µM
TGI [7]: > 100 µM
TGI [8]: > 100 µM
TGI [10]: > 10 µM

Cc1cc(N(CCOS(C)(=O)=O)CCOS(C)(=O)=O)ccc1C=O
TGI [1]: 45.7 µM
TGI [3]: > 100 µM
TGI [4]: > 100 µM
TGI [5]: 26.4 µM
TGI [6]: 14.8 µM
TGI [7]: 0.379 µM
TGI [8]: 60.5 µM
TGI [9]: 45.3 µM
TGI [10]: > 100 µM
